Laboratory results taken from article PMC8963105, “A Novel Modulator of the Renin–Angiotensin System, Benzoylaconitine, Attenuates Hypertension by Targeting ACE/ACE2 in Enhancing Vasodilation and Alleviating Vascular Inflammation” (Frontiers in Pharmacology, 2022).
pEC50: −log10 of the molar value.

Experiments:
[1] = test system: Ang (1–7); assay: serum Ang (1–7) by ELISA in SHRs after 14-day oral administration; assay type: in vivo, rat; settings: oral 14 days
Excerpt: (§1) All three MDAs (BAC, BMC, and BHC) were purchased from Nature-Standard Co., Ltd. (Shanghai, China) and their purities were all over 98%. The anti-hypertensive effects of MDAs were studied in both acute and chronic experiments. The 16-week-old SHRs were used in animal experiments, and each group had six rats. In the acute experiment, drug administration was via i.v. injection. For i.v. injection, the animals were randomly assigned into four groups: vehicle (0.1% DMSO–0.9% salt solution, n = 6), low-dose group (0.6 mg kg^−1 body weight, n = 6), medium-dose group (2 mg kg^−1 body weight, n = 6), and high-dose group (6 mg kg^−1 body weight, n = 6). The drug was administered using a venous catheter. […] Blood pressure was recorded in real time.
(§2) Blood samples were collected from the left femoral artery of rats at the end point, followed by centrifugation at 1,000 × g for 15 min at 4°C. […] The concentrations of circulating ACE, ACE2, Ang I, Ang II, Ang (1–7), TNF-α, and IL-6 in serum were measured using the ELISA kits [ACE, cat#xy-R2401c, X-Y Biotechnology, Shanghai, China; ACE2, cat#xy-ACE2-Ra, X-Y Biotechnology; Ang I, cat#xy-E12541, X-Y Biotechnology; Ang II, cat#xy-R1430c, X-Y Biotechnology; Ang (1–7), cat#xy-Ang1-7-Ra, X-Y Biotechnology; TNF-α, cat#GM1149, Servicebio, Shanghai, China; IL-6, cat#GM1154, Servicebio] according to the manufacturer’s instructions. […]

[2] = test system: ACE2; assay: serum ACE2 by ELISA in SHRs after 14-day oral administration; assay type: in vivo, rat; settings: oral 14 days
Excerpt: as §1, §2

[3] = test system: Ang I; assay: serum Ang I by ELISA in SHRs after 14-day oral administration; assay type: in vivo, rat; settings: oral 14 days
Excerpt: as §1, §2

[4] = molecular target: hrACE2 (Homo sapiens, UniProt Q9BYF1); assay: SensoLyte390 ACE2 activity assay (enzyme kinetics, cell-free); assay type: biochemical; settings: 37°C, 30 min, read-out: EC50 (ACE2 activity, excitatory effect)
Method: ACE and ACE2 activities were measured using the ACE activity assay kit and SensoLyte390 ACE2 activity assay kit (Anaspec, Fremont, CA, United States), respectively, according to the manufacturer’s instructions with some modifications. Briefly, rhACE solution dissolved in deionized water was used for analysis. ACE activity was measured in a reaction system with 50 μl of the sample and 50 μl of the ACE substrate solution with or without BAC (10^–4 to 10^–2 μM). ACE2 activity was assayed in the same manner as ACE activity. All assays were performed every 10 s for 30 min at 37°C using a Varioskan LUX fluorescence microplate reader (Thermo Fisher Scientific, Waltham, MA, United States). The autofluorescence value in each assay was subtracted from the measured values to generate the final results. The relative fluorescence unit of each sample was normalized to the corresponding total protein concentration, which was measured using a Pierce BCA protein assay kit (Thermo Fisher Scientific).

[5] = test system: TNF-α; assay: serum TNF-α by ELISA in SHRs; assay type: in vivo, rat; settings: oral 14 days
Excerpt: as §1, §2

[6] = test system: spontaneously hypertension rats (SHRs); assay: acute experiment: real-time blood pressure after i.v. injection in SHRs; assay type: in vivo, rat
Method: The SHRs were surgically implanted with a catheter via the left femoral artery, vein, and stomach after anesthetizing with 2% pentobarbital sodium (40 mg kg^−1 i.p.,). A pressure sensor was inserted into the terminal of the arterial catheter and connected to a PowerLab system (ADInstruments, New South Wales, Australia) for real-time blood pressure monitoring.
(§3) All three MDAs (BAC, BMC, and BHC) were purchased from Nature-Standard Co., Ltd. (Shanghai, China) and their purities were all over 98%. The anti-hypertensive effects of MDAs were studied in both acute and chronic experiments. The 16-week-old SHRs were used in animal experiments, and each group had six rats. In the acute experiment, drug administration was via i.v. injection. For i.v. injection, the animals were randomly assigned into four groups: vehicle (0.1% DMSO–0.9% salt solution, n = 6), low-dose group (0.6 mg kg^−1 body weight, n = 6), medium-dose group (2 mg kg^−1 body weight, n = 6), and high-dose group (6 mg kg^−1 body weight, n = 6). The drug was administered using a venous catheter. In chronic experiments, the animals were randomly assigned into five groups: vehicle (5% Tween 80–0.9% salt solution, n = 6), captopril group (5 mg kg^−1 body weight, n = 6), low-dose group (3 mg kg^−1 body weight, n = 6), medium-dose group (10 mg kg^−1 body weight, n = 6), and high-dose group (30 mg kg^−1 body weight, n = 6). Oral administration with drug or 5% Tween 80–0.9% salt solution was carried out once a day, and continued for 14 days. The drugs were dissolved in 0.1% DMSO–0.9% salt solution for intravenous injection and in 5% Tween 80–0.9% salt solution for oral administration. Blood pressure was recorded in real time.
Real-time blood pressure level was monitored after drug treatment in the acute and chronic experiments. All animals were surgically implanted with a catheter in the left femoral artery. After connection to the monitor, all animals were placed at room temperature of 25°C for 0.5–1 h and the average blood pressure value was calculated based on a real-time blood pressure curve (10 s of every 30 s).

[7] = test system: ACE; assay: serum ACE by ELISA in SHRs after 14-day oral administration; assay type: in vivo, rat; settings: oral 14 days
Excerpt: as §1, §2

[8] = test system: ACE; assay: ACE expression in aorta of SHRs (Western blot, tissue immunofluorescence); assay type: in vivo, rat; settings: oral 14 days
Excerpt: as §3, with “The drugs were dissolved in 0.1% DMSO–0.9% salt solution for intravenous injection and in 5% Tween 80–0.9% salt solution for oral administration.” left out, “time. […]” for “time.”
The cell samples and tissue sample were collected and placed in ice rapidly. […] Protein concentration in cell lysates was measured using a Bio-Rad DC Protein Assay Kit […]. […]

Sequence of hrACE2 (Q9BYF1 18-805): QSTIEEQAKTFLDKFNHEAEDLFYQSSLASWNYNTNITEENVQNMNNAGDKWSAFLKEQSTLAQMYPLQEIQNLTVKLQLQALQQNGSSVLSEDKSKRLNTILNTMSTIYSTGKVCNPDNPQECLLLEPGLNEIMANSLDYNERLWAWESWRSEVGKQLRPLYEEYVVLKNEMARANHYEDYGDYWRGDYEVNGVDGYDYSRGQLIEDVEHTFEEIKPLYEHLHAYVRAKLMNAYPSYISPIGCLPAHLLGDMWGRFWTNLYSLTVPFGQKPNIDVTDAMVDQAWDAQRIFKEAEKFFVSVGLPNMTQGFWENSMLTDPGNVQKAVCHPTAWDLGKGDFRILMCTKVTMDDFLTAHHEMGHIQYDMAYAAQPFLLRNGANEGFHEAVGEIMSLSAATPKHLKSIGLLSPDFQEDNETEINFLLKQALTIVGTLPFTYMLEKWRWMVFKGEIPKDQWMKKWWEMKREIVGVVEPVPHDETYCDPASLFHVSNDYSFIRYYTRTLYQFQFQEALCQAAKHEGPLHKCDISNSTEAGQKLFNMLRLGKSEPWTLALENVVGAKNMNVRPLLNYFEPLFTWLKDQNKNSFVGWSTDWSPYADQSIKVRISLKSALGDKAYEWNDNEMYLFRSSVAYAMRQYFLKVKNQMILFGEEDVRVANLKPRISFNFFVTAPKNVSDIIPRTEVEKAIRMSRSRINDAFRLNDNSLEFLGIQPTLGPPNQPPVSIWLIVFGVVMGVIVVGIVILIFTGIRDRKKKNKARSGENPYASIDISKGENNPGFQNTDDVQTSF

## CCN1CC2(COC)C(O)CC(OC)C34C5CC6(O)C(OC)C(O)C(O)(C5C6OC(=O)c5ccccc5)C(C(OC)C23)C14 (stereo not shown) [BAC, Benzoylaconitine]
[1]
  level of Ang (1–7) in blood: significantly increased
[2]
  level of ACE2 in blood: did not change
[3]
  level of Ang I in blood: did not change
[4]
  pEC50: 5.82
[5]
  level of TNF-α in serum: reduced
[6]; acute experiment, i.v. injection 0.6–6 mg kg^−1
  anti-hypertensive effect (in words): observable anti-hypertensive effects
[6]; i.v. injection, 0.6 mg kg^−1
  duration of anti-hypertensive effect: at least 30 min
[6]; i.v. injection, lowest dose 0.6 mg kg^−1, 1–5 min
  lowering of SBP, DBP, and MAP: more than 20 mmHg
[7]
  level of ACE in blood: decreased
[8]
  ACE expression in the aorta: significantly downregulated
